Data reported in patent US20090061461A1, “Phosphorylated or Non-Phosphorylated MPR as Diagnostic Marker or Therapeutic Target” (priority 2005, published 2009).

Tests used:
[1] = tested on: breast cancer exhibiting a positive ER status; details: patients with breast cancer of positive ER status; cited from earlier work
[2] = tested on: MCF-7 breast cancer cells; assay: Stable transfection of MCF-7 cells, colony formation / cell count after 2 weeks of selection; format: cell-based, human; details: MCF-7 cells transfected with pcDNA3.1 HA-tagged mPR plasmid, 2 weeks hygromycin B selection
Method: Colonies were grown from all transfected cell lines. […] This anti-proliferative effect of both of these mutants was not observed using transiently transfected cells used for immunohistochemistry in cytospins because these were assayed shortly after transfection.
Therefore, treatments that would promote the formation of the hypophosphorylated dimeric form in tumors would be highly desirable. […] Therefore the interaction of an SH3-domain-containing protein that interacts with the SH3-domain target sequence that contains serine 56 is necessary to manifest the antiproliferative phenotype associated with non-phosphorylated serine 180. The interaction of this unknown protein is inhibited by phosphorylation of serine 56, thereby preventing the antiproliferative phenotype and enhancing proliferative ability. Conversely, when an SH2-domain-containing protein can bind to the phosphorylated tyrosine 179 adjacent to non-phosphorylated serine 180 then the antiproliferative effect is antagonized, and cells can proliferate. […]
MCF-7 cells stably transfected with mPR and mutants, respectively, were established. […] To that aim colonies were trypsinized, counted and diluted in two-fold dilutions.

DCC = biological target: T1, DCC (Homo sapiens, UniProt P43146); assay: Immune precipitation of DCC with HA-tagged mPR, Western blot with anti-DCC AF5; format: binding; details: MCF7 cells, 24 hours after transfection, anti-HA immunoprecipitation
T1 construct: endogenous in cells; host or cells: MCF7 human breast cancer cells, transfected only with mPR-3HA expression plasmids
T1 sequence (P43146 26-1447): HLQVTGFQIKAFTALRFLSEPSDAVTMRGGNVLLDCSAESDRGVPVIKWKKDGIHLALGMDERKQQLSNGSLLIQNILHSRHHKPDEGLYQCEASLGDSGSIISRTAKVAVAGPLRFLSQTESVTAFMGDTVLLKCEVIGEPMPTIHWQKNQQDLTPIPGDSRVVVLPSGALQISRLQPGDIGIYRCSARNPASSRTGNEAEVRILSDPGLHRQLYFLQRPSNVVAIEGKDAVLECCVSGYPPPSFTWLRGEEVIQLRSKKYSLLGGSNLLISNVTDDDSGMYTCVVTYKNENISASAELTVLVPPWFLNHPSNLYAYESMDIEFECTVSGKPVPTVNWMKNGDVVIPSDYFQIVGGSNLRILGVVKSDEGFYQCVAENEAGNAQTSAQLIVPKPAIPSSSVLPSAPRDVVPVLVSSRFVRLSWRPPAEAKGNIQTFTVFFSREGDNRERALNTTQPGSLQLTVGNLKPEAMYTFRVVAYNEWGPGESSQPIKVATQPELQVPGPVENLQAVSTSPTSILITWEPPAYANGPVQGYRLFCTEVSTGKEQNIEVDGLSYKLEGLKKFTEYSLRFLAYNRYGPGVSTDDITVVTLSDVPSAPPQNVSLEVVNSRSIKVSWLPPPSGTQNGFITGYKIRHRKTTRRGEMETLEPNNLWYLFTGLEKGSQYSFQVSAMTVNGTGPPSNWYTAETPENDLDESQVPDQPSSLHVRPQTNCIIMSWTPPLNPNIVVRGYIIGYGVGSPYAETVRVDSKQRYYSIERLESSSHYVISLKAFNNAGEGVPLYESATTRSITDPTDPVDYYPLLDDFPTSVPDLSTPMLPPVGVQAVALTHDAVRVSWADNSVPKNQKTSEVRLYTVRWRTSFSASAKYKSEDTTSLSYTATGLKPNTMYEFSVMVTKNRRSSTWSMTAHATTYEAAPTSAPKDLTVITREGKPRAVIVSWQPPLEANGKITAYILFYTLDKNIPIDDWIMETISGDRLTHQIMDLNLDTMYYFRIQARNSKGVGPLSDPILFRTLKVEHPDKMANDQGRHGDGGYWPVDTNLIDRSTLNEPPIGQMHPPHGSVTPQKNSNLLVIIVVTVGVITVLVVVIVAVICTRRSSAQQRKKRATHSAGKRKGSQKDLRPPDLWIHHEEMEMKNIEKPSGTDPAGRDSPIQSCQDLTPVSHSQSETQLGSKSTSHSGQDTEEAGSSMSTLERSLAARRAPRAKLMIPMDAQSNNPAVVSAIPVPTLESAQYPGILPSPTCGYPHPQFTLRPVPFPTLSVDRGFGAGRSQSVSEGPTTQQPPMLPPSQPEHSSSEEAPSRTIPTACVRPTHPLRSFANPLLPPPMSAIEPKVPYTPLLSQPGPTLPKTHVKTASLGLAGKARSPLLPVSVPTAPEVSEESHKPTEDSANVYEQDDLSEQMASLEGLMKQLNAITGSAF
Method: Therefore it is most reasonable to assume that mPR will be detectable in a complex with DCC. […] Aliquots of 2×10^6 MCF7 cells were transfected as described below with each of the mPR expression vectors.
After 24 hours the mPR-3HA proteins were affinity purified with an anti-HA anti-body described above. The AF5 anti DCC human monoclonal antibody (Merck Biosciences OP45 Anti-DCC Mouse mAb AF5) was used to detect the presence of DCC by Western Blot. Normalized amounts of the precleared incubation reaction, the final supernatant after removal of the immuno-precipitate, and of the immuno-precipitated pellet were loaded to SDS-PAGE gels, blotted to membranes, and Western Blotted with the AF5 anti-DCC antibody. […] The size of the band was slightly higher than the predicted 158 kDa for DCC, possibly due to post-translational modification of the protein. An approximately 100 kDa band also reacted with the anti-DCC monoclonal antibody in Western Blot, which may represent a proteolytic fragment of DCC. […] We are not naively claiming a phosphorylated form of mPR interacts with DCC, which is not shown by our data. […]
MCF-7 breast cancer cells were transfected by Lipofection with 5 μg of pcDNA3.1 containing HA-tagged mPR-wt, tagged mutant S56A, S180A, S56A/S180A, or tagged mutant S56A/C128S/[…]. […] For IP the cells were trypsinized, counted and cell pellets were snap frozen and stored at −80° C. […]

Row | Compound | number of colonies / ability to proliferate [2] | further results
1 | CC/C(=C(\c1ccccc1)c1ccc(OCCN(C)C)cc1)c1ccccc1 [tamoxifen] |  | fraction of cases in which effective [1]: approximately 50%
2 | S56A/C128S/S180A: HA-tagged mPR triple mutant: serine 56 and 180 to alanine, cysteine 128 to serine | able to proliferate | 
3 | S56A/S180A: HA-tagged mPR (PGRMC1) with serine 56 and serine 180 mutated to alanine, expressed from plasmid pcDNA3.1 | drastically reduced to effectively background levels | 
4 | wild-type mPR: HA-tagged wild-type membrane associated progesterone receptor component 1 expressed from pcDNA3_MPR-3HA |  | DCC band in immune precipitation pellet (DCC): A high molecular weight DCC band was observed
